Measured values published in the NIST ThermoML archive (doi:10.1016/j.jct.2018.08.036).
± gives the expanded uncertainty stated by the source.

Legend:
[1] = xn = mol fraction of the nth substance listed; conditions: 100 kPa, Liquid; for viscosity: Falling or rolling sphere viscometry; for speed of sound: Frequency=3 MHz, Single path-length method; for mass density: Vibrating tube method
[2] = refractive index (Na D-line) (dimensionless); xn = mol fraction of the nth substance listed; conditions: 100 kPa, Liquid, Standard Abbe refractometry

CCCc1ccccc1 [propylbenzene] + CCCCCCCCCCCCCCCC
Conditions	mass density, [1] [kg/m3]	refractive index, [2]	speed of sound, [1] [m/s]	viscosity, [1] [mPa·s]
298.15 K, x2 = 0	858.45 ± 0.22	1.4896 ± 0.0004	1320.6 ± 0.6	0.792 ± 0.021
298.15 K, x2 = 0.0627	846.52 ± 1.8	1.4817 ± 0.0013	1317.3 ± 0.8	0.872 ± 0.027
298.15 K, x2 = 0.1009	840.12 ± 1.5	1.4775 ± 0.001	1315.7 ± 0.7	0.928 ± 0.029
298.15 K, x2 = 0.207	825.01 ± 1.3	1.4677 ± 0.0009	1314.8 ± 0.7	1.092 ± 0.033
298.15 K, x2 = 0.3093	813.2 ± 1.1	1.4602 ± 0.0008	1315.7 ± 0.8	1.269 ± 0.038
298.15 K, x2 = 0.3863	805.79 ± 0.92	1.4554 ± 0.0007	1317.7 ± 0.8	1.408 ± 0.042
298.15 K, x2 = 0.5055	796.08 ± 0.85	1.4492 ± 0.0007	1320.9 ± 0.8	1.654 ± 0.047
298.15 K, x2 = 0.5603	792.22 ± 0.72	1.4467 ± 0.0006	1322.7 ± 0.9	1.776 ± 0.05
298.15 K, x2 = 0.7042	783.32 ± 0.69	1.441 ± 0.0006	1327.7 ± 0.9	2.114 ± 0.056
298.15 K, x2 = 0.7728	779.76 ± 0.62	1.4387 ± 0.0005	1330 ± 1	2.291 ± 0.061
298.15 K, x2 = 0.8468	776.25 ± 0.58	1.4365 ± 0.0005	1332.8 ± 1	2.505 ± 0.065
308.15 K, x2 = 0	850.01 ± 0.22	1.4844 ± 0.0004	1280.6 ± 0.6	0.699 ± 0.021
308.15 K, x2 = 0.0627	838.3 ± 1.8	1.4766 ± 0.0013	1277.8 ± 0.8	0.766 ± 0.026
308.15 K, x2 = 0.1009	832.03 ± 1.5	1.4724 ± 0.001	1276.8 ± 0.7	0.813 ± 0.028
308.15 K, x2 = 0.207	817.19 ± 1.3	1.4628 ± 0.0009	1276.4 ± 0.7	0.949 ± 0.032
308.15 K, x2 = 0.3093	805.67 ± 1.1	1.4554 ± 0.0008	1277.9 ± 0.8	1.09 ± 0.036
308.15 K, x2 = 0.3863	798.39 ± 0.9	1.4509 ± 0.0007	1279.9 ± 0.8	1.203 ± 0.039
308.15 K, x2 = 0.5055	788.78 ± 0.85	1.4448 ± 0.0007	1283.6 ± 0.9	1.396 ± 0.045
308.15 K, x2 = 0.5603	784.97 ± 0.7	1.4424 ± 0.0006	1285.4 ± 0.9	1.495 ± 0.047
308.15 K, x2 = 0.7042	776.34 ± 0.69	1.4368 ± 0.0006	1290.5 ± 0.9	1.761 ± 0.053
308.15 K, x2 = 0.7728	772.78 ± 0.62	1.4346 ± 0.0005	1292.9 ± 1	1.886 ± 0.057
308.15 K, x2 = 0.8468	769.24 ± 0.58	1.4323 ± 0.0005	1295.7 ± 1	2.05 ± 0.06
318.15 K, x2 = 0	841.53 ± 0.22	1.4792 ± 0.0004	1241 ± 0.6	0.626 ± 0.021
318.15 K, x2 = 0.0627	830.05 ± 1.8	1.4713 ± 0.0013	1238.8 ± 0.7	0.683 ± 0.025
318.15 K, x2 = 0.1009	823.89 ± 1.4	1.4673 ± 0.001	1238.2 ± 0.7	0.722 ± 0.027
318.15 K, x2 = 0.207	809.33 ± 1.3	1.4578 ± 0.0009	1238.5 ± 0.7	0.835 ± 0.031
318.15 K, x2 = 0.3093	798.09 ± 1.1	1.4506 ± 0.0008	1240.4 ± 0.8	0.952 ± 0.035
318.15 K, x2 = 0.3863	790.87 ± 0.9	1.4461 ± 0.0007	1242.7 ± 0.8	1.044 ± 0.038
318.15 K, x2 = 0.5055	781.4 ± 0.83	1.4402 ± 0.0006	1246.6 ± 0.9	1.2 ± 0.043
318.15 K, x2 = 0.5603	777.68 ± 0.7	1.4378 ± 0.0006	1248.6 ± 0.9	1.28 ± 0.045
318.15 K, x2 = 0.7042	769.05 ± 0.68	1.4324 ± 0.0006	1253.6 ± 0.9	1.485 ± 0.051
318.15 K, x2 = 0.7728	765.61 ± 0.61	1.4302 ± 0.0005	1256.2 ± 1	1.585 ± 0.055
318.15 K, x2 = 0.8468	762.23 ± 0.58	1.428 ± 0.0005	1258.9 ± 1	1.713 ± 0.058
